Source: patent publication US20220040129A1, “TREATMENT OF HYPERAMMONEMIA IN PATIENTS WITH RENAL INSUFFICIENCY” (RECORDATI S.p.A., priority 2019, published 2022)

Key:
[1] = Nonclinical safety study in rats: exposure; details: rat, in vivo
human OCT2 = target: T1, human OCT2 (Homo sapiens, UniProt O15244); assay: In vitro transporter inhibition; type: in vitro ADME
T1 sequence (O15244 1-555): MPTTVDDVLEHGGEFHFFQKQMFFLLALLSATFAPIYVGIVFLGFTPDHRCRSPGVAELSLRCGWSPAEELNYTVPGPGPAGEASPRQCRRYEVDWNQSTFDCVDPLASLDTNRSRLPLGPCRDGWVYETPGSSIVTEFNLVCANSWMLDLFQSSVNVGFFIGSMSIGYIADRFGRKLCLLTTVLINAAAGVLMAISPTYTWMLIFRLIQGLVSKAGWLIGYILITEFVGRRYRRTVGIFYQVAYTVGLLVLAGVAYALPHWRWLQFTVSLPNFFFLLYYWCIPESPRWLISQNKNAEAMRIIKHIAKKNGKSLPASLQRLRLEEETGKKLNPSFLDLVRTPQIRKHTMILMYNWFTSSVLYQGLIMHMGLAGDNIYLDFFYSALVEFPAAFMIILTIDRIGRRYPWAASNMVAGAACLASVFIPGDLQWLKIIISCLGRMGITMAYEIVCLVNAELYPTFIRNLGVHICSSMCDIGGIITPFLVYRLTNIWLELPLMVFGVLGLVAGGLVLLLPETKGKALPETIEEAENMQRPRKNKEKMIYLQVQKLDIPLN
Method: (§1) In vitro drug interaction studies were performed with human transporters. […] Potential interactions with inhibitors of the OAT1 transporter were considered clinically irrelevant.

human OATP1B1 = target: T2, human OATP1B1 (Homo sapiens, UniProt Q9Y6L6); assay: In vitro transporter inhibition; type: in vitro ADME
T2 sequence (Q9Y6L6 1-691): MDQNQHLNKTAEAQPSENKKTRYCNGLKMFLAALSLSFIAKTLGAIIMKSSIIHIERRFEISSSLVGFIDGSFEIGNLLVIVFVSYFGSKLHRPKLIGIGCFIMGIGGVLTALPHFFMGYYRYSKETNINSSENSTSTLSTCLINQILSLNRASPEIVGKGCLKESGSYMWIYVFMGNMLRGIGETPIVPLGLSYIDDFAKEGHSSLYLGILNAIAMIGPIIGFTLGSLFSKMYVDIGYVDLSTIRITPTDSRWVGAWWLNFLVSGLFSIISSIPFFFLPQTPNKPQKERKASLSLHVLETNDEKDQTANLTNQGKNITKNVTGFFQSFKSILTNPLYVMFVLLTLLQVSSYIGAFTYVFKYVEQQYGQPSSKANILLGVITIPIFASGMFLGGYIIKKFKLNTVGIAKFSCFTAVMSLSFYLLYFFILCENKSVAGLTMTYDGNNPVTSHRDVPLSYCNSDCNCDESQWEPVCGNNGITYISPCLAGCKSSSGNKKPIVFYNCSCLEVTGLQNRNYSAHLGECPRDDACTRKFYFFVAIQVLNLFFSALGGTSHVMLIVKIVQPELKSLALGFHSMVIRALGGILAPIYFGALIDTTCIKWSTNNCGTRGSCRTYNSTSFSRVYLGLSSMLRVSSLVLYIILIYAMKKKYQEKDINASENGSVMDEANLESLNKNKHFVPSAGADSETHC
Method: as §1

human MATE1 = target: T3, human MATE1 (Homo sapiens, UniProt Q96FL8); assay: In vitro transporter inhibition; type: in vitro ADME
T3 sequence (Q96FL8 1-570): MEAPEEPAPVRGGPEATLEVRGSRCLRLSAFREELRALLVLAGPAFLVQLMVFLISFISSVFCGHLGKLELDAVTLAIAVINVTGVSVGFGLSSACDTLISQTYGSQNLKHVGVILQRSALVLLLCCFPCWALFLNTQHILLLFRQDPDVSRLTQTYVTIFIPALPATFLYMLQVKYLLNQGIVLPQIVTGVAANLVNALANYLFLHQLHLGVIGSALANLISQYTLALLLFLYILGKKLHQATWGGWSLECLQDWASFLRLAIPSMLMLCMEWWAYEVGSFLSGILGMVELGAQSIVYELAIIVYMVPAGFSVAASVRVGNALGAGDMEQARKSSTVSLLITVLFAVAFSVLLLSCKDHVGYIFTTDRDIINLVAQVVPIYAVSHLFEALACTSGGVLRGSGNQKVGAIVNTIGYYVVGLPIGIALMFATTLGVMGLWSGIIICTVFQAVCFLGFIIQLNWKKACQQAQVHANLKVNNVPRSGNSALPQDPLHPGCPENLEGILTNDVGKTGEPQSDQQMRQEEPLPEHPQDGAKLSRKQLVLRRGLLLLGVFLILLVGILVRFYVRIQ
Method: as §1

human MDR1 = human MDR1 (Homo sapiens, UniProt P08183); assay: In vitro transporter inhibition; type: in vitro ADME
Method: as §1

human BSEP = human BSEP (Homo sapiens, UniProt O95342); assay: In vitro transporter inhibition; type: in vitro ADME
Method: as §1

human BCRP = target: T4, human BCRP (Homo sapiens, UniProt Q9UNQ0); assay: In vitro transporter inhibition; type: in vitro ADME
T4 sequence (Q9UNQ0 1-655): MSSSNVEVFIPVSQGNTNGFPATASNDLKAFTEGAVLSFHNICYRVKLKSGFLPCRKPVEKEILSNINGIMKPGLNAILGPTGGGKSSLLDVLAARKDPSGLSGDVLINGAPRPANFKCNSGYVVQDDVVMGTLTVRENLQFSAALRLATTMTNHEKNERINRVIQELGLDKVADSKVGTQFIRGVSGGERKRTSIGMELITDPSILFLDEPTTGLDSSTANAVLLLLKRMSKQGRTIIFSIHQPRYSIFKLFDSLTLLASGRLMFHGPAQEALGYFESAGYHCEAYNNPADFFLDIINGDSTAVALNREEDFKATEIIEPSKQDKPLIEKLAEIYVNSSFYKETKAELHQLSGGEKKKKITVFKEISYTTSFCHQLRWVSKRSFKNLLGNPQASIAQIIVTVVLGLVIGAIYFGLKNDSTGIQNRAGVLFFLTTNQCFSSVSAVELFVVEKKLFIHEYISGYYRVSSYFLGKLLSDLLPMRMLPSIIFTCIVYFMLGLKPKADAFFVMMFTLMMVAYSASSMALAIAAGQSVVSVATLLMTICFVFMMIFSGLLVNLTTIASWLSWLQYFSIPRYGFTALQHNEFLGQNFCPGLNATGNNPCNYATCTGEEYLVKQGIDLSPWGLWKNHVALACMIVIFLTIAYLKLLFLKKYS
Method: as §1

human BSEP, sequence (O95342 whole entry): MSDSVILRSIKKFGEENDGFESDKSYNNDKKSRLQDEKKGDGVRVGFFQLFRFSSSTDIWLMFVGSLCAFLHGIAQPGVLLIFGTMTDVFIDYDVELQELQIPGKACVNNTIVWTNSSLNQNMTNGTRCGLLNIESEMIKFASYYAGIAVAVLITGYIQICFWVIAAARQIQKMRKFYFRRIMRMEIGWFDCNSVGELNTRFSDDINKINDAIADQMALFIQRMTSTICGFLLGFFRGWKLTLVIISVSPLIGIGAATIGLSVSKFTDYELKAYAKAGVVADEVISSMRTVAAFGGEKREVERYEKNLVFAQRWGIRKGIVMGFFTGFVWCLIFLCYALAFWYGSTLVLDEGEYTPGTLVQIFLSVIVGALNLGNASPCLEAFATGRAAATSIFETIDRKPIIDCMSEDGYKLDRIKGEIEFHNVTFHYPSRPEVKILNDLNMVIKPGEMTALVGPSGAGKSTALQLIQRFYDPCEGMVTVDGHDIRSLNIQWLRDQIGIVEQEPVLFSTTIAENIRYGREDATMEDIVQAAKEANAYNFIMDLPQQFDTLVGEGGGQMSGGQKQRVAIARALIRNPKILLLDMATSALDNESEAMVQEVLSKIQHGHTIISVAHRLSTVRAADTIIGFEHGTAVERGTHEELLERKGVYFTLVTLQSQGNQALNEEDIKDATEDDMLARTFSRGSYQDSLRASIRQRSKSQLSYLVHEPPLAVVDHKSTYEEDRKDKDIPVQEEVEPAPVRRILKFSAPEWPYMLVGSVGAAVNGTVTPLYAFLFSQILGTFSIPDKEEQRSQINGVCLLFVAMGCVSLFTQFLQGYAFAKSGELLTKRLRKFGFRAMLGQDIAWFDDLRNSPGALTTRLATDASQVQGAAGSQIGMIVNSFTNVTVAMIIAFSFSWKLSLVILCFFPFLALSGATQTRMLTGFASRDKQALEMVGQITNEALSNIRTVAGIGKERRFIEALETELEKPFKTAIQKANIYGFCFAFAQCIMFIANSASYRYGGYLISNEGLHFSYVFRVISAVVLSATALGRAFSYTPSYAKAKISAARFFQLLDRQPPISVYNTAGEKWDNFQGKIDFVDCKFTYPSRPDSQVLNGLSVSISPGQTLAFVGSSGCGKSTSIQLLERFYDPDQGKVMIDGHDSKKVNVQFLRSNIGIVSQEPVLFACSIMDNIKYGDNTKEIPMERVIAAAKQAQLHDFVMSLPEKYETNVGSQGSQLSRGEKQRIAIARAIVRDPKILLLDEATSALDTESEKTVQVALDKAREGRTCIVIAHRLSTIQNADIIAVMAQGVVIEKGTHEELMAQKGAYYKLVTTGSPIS
human MDR1, sequence (P08183 whole entry): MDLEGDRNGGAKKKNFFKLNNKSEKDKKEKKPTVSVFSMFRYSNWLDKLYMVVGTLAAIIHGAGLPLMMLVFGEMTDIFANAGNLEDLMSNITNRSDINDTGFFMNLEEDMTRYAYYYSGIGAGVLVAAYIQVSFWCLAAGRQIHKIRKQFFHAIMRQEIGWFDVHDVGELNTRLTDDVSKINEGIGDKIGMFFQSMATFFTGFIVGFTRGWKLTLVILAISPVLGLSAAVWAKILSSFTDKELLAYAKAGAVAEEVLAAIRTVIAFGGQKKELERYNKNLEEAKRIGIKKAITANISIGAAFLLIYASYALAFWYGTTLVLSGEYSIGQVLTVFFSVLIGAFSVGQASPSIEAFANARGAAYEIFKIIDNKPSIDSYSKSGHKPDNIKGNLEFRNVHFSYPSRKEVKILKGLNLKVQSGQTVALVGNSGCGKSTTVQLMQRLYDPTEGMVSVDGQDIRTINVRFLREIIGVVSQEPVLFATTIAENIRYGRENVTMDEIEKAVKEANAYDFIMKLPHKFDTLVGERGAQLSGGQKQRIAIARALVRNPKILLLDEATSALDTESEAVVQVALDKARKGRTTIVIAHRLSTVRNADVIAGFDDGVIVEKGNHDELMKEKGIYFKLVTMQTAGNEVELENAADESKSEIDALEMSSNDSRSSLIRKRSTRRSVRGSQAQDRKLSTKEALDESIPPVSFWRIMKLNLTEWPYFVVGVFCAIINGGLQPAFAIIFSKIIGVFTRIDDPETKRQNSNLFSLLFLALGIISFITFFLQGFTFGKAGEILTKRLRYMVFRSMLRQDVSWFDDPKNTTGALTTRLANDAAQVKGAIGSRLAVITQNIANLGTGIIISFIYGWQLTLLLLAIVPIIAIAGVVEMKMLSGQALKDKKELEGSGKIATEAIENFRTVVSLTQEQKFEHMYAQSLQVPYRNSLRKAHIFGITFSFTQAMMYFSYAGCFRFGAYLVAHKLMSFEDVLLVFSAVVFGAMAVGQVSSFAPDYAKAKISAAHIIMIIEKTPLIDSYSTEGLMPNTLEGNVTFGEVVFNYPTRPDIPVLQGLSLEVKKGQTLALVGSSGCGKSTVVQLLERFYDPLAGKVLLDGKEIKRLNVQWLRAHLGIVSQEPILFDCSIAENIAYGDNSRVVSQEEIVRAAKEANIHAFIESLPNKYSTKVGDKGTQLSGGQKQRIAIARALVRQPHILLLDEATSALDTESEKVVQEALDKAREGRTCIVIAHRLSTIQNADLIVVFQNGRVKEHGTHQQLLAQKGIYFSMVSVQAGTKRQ

In the case of `NC(=O)N[C@@H](CCC(=O)O)C(=O)O` [carglumic acid, N-carbamoyl-L-glutamic acid], the AUC ([1]; read-out: AUC, exposure previously observed) is reported as 258 µg·h/mL, the Cmax ([1]; read-out: Cmax, exposure previously observed) is reported as 52 µg/mL and the “Inhibition of human OCT2 uptake transporter” value (human OCT2) is reported as “not an inhibitor”. For the same compound, the “Inhibition of human OATP1B1 uptake transporter” value (human OATP1B1) was “not an inhibitor”, the “Inhibition of human MATE1 uptake transporter” value (human MATE1) was “not an inhibitor” and the “Inhibition of human MDR1 efflux transporter” value (human MDR1) was “not an inhibitor”. For the same compound, the “Inhibition of human BSEP efflux transporter” value (human BSEP) was “not an inhibitor” and the “Inhibition of human BCRP efflux transporter” value (human BCRP) was “not an inhibitor”.
